Structures can show the parent of a compound that is named as a salt.

This assay relates to anesthetized rats. As to the kind of experiment: Anesthetized rat spirometry screening assay (ventilatory activity, minute volume). Type of assay: in vivo. As to conditions: increase in minute volume (VE); for change in vivo at 0.3 mg/kg: 0.3 mg/kg IV bolus, read-out: VE % Inc @ 0.3 mg/kg IV; for change in vivo at 3 mg/kg: 3.0 mg/kg IV bolus, read-out: VE % Inc @ 3.0 mg/kg IV. As for the experimental part: Anesthetized rats provide a quick method of screening compounds for respiratory and cardiovascular activity.
Rats were initially anesthetized with 3% isoflurane (inhaled) and femoral artery and vein cannulas were surgically inserted. Once cannulated, the rats were transitioned to urethane anesthesia (1.5 g/kg; i.v.) and a tracheal cut-down was performed. After placing the tracheal cannula, it was connected to a pneumotachometer to record respiratory airflow from which respiratory rate (RR), tidal volume (VT), and their product minute volume (MV, also termed VE) were derived. After the surgical preparation was complete, animals were allowed to stabilize for 30 minutes while respiratory rate, tidal volume, minute volume, blood pressure and heart rate were recorded continuously. Arterial blood gases (ABG) were obtained from arterial blood collected from the femoral artery. ABG measurements were taken before and 6 minutes after vehicle and each dose of compound administered. Compounds being screened were administered via bolus injections through the venous cannula followed by a saline flush (total time of administration is approximately 30 seconds), and the animal was monitored for at least 6 minutes for changes in cardiovascular efforts. Compounds were prepared in formulations identified to ensure optimal solubility. As such, vehicle controls were matched for the formulation of each compound tested. Dosing of the compounds being screened was conducted at 0.1 and/or 0.3 mg/kg and/or 3 mg/kg The next dose was not administered until all cardiovascular and respiratory measures had returned to baseline levels. The positive control compounds used were N-[4,6-di-(n-propylamino)-[1,3,5]triazin-2-yl]-N,O-dimethyl-hydroxylamine or N-[2,6-di-(n-propylamino)-[1,3]pyrimidin-4-yl]-N,O-dimethyl-hydroxylamine (both administered at the end of each screening experiment (0.3 mg/kg dose) to validate the experiment and also to serve as a measure with which the compound being screened could be compared.
Data were analyzed by collecting cardiovascular and respiratory data in 30 second averages (BINs). Data were plotted 2 minutes before challenge and then 6 minutes after challenge.

Consider `CNc1nc(NCCO)c2nc(NC)nc(NC)c2n1` [Compound 52a, 2-(2,6,8-Tris-methylamino-pyrimido[5,4-d]pyrimidin-4-ylamino)-ethanol Hydrochloride], for which the change in vivo at 0.3 mg/kg is 26%.
On to `CCNc1nc(NC[C@@H](C)O)nc2c(NCC)nc(N)nc12` [Compound 171, (R)-1-(6-Amino-4,8-bis-ethylamino-pyrimido[5,4-d]-pyrimidin-2-ylamino)-propan-2-ol], for which the change in vivo at 0.3 mg/kg stood at 17% and the change in vivo at 3 mg/kg came to 175%.
Regarding `CCCNc1nc(NC)c2nc(N[C@@H]3c4ccccc4C[C@@H]3O)nc(NC)c2n1` [Compound 123, (1R,2S)-1-(4,8-Bis-methylamino-6-propylamino-pyrimido[5,4-d]-pyrimidin-2-ylamino)-indan-2-ol], the change in vivo at 0.3 mg/kg came out at 11% and the change in vivo at 3 mg/kg was found to be 129%.
With `CCNc1nc(NCC(C)(C)O)c2nc(NCC)nc(NCC)c2n1` [Compound 49a, 2-Methyl-1-(2,6,8-tris-ethylamino-pyrimido[5,4-d]-pyrimidin-4-ylamino)-propan-2-ol Hydrochloride], the change in vivo at 0.3 mg/kg came to 127% and the change in vivo at 3 mg/kg is 183%.
For `CCCNc1nc(NC)c2nc(NC[C@H](C)O)nc(NC)c2n1` [Compound 113, (S)-1-(4,8-Bis-methylamino-6-propylamino-pyrimido[5,4-d]pyrimidin-2-ylamino)-propan-2-ol], the change in vivo at 0.3 mg/kg was 111% and the change in vivo at 3 mg/kg came out at 190%.
On the same counts, the results for `CNc1nc(NC[C@@H](C)O)nc2c(NC)nc(N)nc12` [Compound 151, (R)-1-(6-Amino-4,8-bis-methylamino-pyrimido[5,4-d]-pyrimidin-2-ylamino)-propan-2-ol] are 0% and 95%.
Consider `CC[C@@H](C)Nc1nc(NC)c2nc(NC[C@@H](C)O)nc(NC)c2n1` [Compound 100, (R)-1-[6-((R)-sec-Butylamino)-4,8-bis-methylamino-pyrimido[5,4-d]pyrimidin-2-ylamino]-propan-2-ol], for which the change in vivo at 0.3 mg/kg turned out to be 33% and the change in vivo at 3 mg/kg is 139%.
For `CCCNc1nc(NC)nc2c(N(C)CC(C)(C)O)nc(NC)nc12` [Compound 76, 1-[(2,6-Bis-methylamino-8-propylamino-pyrimido[5,4-d]pyrimidin-4-yl)-methyl-amino]-2-methyl-propan-2-ol], the change in vivo at 0.3 mg/kg came to 37% and the change in vivo at 3 mg/kg came out at 71%.
As for `CC[C@H](C)Nc1nc(NC)c2nc(NC[C@@H](C)O)nc(NC)c2n1` [Compound 104, (R)-1-[6-((S)-sec-Butylamino)-4,8-bis-methylamino-pyrimido[5,4-d]pyrimidin-2-ylamino]-propan-2-ol], the change in vivo at 0.3 mg/kg came to 33% and the change in vivo at 3 mg/kg is 98%.
In the same order, the values of `CNc1nc(NCC(C)(C)O)c2nc(NC)nc(NCc3ncccn3)c2n1` [Compound 38a, 1-{2,6-Bis-methylamino-8-[(pyrimidin-2-ylmethyl)-amino]-pyrimido[5,4-d]pyrimidin-4-ylamino}-2-methyl-propan-2-ol Hydrochloride] are 18% and 27%.
In the same order, the values of `CNc1nc(NCC(C)(C)O)nc2c(NC)nc(NCc3ncccn3)nc12` [Compound 109, 1-{4,8-Bis-methylamino-6-[(pyrimidin-2-ylmethyl)-amino]-pyrimido[5,4-d]pyrimidin-2-ylamino}-2-methyl-propan-2-ol] are 21% and 10%.
As for `CCCNc1nc(NC)nc2c(N3CCC(O)C3)nc(NC)nc12` (centres unmarked) [Compound 71a, 1-(2,6-Bis-methylamino-8-propylamino-pyrimido[5,4-d]pyrimidin-4-yl)-pyrrolidin-3-ol Hydrochloride], the change in vivo at 0.3 mg/kg was found to be 17% and the change in vivo at 3 mg/kg was found to be 84%.
